Pest or weed control and mortality data for 20 molecules are collected here from patent US10251394B2, “Molecules having pesticidal utility, and intermediates, compositions, and processes, related thereto” (Dow AgroSciences LLC, priority 2016, dated 2019).

The structures appear in SMILES notation.

By mortality is commonly meant the percentage killed.

Test [1] relates to Cabbage Looper (Trichoplusia ni). As to the kind of experiment: Bioassay on Cabbage Looper (CL), 128-well diet tray assay. Type of test: in vivo. As to conditions: for pest or weed control at 50 µg/cm2: Cabbage Looper, Table ABC, read-out: CL rating. The gist of the method: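 Mortality after five to seven days at 25° C (14:10 photoperiod), averaged over eight wells per compound. Diet in each well carried 50 μg/cm^2 of dried test molecule and received one to five second-instar larvae.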

Test [2] relates to Beet Armyworm (Spodoptera exigua). As to the kind of experiment: Bioassay on Beet Armyworm (BAW), 128-well diet tray assay. The test is classed as in vivo. To be noted: for pest or weed control at 50 µg/cm2: Beet Armyworm, Table ABC, read-out: BAW rating. The gist of the method: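 Percent mortality, averaged over eight wells, was scored after five to seven days at 25° C under 14:10 light-dark. Each well's diet carried 50 μg/cm^2 of test molecule applied in acetone-water (90:10) and dried before one to five second-instar larvae were added.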

With `CC(F)(F)C(/C=C(\F)c1ccc(C(=O)NC2(C(=O)NCC(F)(F)F)CC2)c(C(F)(F)F)c1)c1cc(Cl)c(Cl)c(Cl)c1` (stereo not shown) [F58, (Z)-4-(1,4,4-Trifluoro-3-(3,4,5-trichlorophenyl)pent-1-en-1-yl)-N-(1-((2,2,2-trifluoroethyl)carbamoyl)cyclopropyl)-2-(trifluoromethyl)benzamide], the pest or weed control at 50 µg/cm2 in test [1] and in test [2] was 50 to 100% throughout.
Regarding `CC(F)(F)C(/C=C(\F)c1ccc(C(=O)NCC(=O)NCC(F)(F)F)c(C(F)(F)F)c1)c1cc(Cl)c(Cl)c(Cl)c1` (stereo not shown) [F62, (Z)—N-(2-Oxo-2-((2,2,2-trifluoroethyl)amino)ethyl)-4-(1,4,4-trifluoro-3-(3,4,5-trichlorophenyl)pent-1-en-1-yl)-2-(trifluoromethyl)benzamide], the pest or weed control at 50 µg/cm2 in test [1] and in test [2] was 50 to 100% throughout.
On to `CCNC(=O)[C@@H](C)NC(=O)c1ccc(/C(F)=C/C(c2cc(Cl)c(Cl)c(Cl)c2)C(F)(F)F)cc1C(F)(F)F` (stereo partly drawn) [F63, N—((R)-1-(Ethylamino)-1-oxopropan-2-yl)-4-((Z)-1,4,4,4-tetrafluoro-3-(3,4,5-trichlorophenyl)but-1-en-1-yl)-2-(trifluoromethyl)benzamide], for which the pest or weed control at 50 µg/cm2 in test [1] and in test [2] was 50 to 100% throughout.
`CCNC(=O)[C@@H](C)NC(=O)c1ccc(/C(F)=C/C(c2cc(Cl)c(Cl)c(Cl)c2)C(F)(F)F)cc1Cl` (stereo partly drawn) [F64, 2-Chloro-N—((R)-1-(ethylamino)-1-oxopropan-2-yl)-4-((Z)-1,4,4,4-tetrafluoro-3-(3,4,5-trichlorophenyl)but-1-en-1-yl)benzamide]: the pest or weed control at 50 µg/cm2 in test [1] and in test [2] was 50 to 100% in each case.
As for `CC(NC(=O)CNC(=O)c1ccc(/C(F)=C/C(c2cc(Cl)c(Cl)c(Cl)c2)C(F)(F)F)cc1C(F)(F)F)C(F)(F)F` (stereo not shown) [F65, (Z)—N-(2-Oxo-2-((1,1,1-trifluoropropan-2-yl)amino)ethyl)-4-(1,4,4,4-tetrafluoro-3-(3,4,5-trichlorophenyl)but-1-en-1-yl)-2-(trifluoromethyl)benzamide], the pest or weed control at 50 µg/cm2 in test [1] and in test [2] was 50 to 100% in each case.
Take `CC(NC(=O)CNC(=O)c1ccc(/C(F)=C/C(c2cc(Cl)c(Cl)c(Cl)c2)C(F)(F)F)cc1Cl)C(F)(F)F` (stereo not shown) [F66, (Z)-2-Chloro-N-(2-oxo-2-((1,1,1-trifluoropropan-2-yl)amino)ethyl)-4-(1,4,4,4-tetrafluoro-3-(3,4,5-trichlorophenyl)but-1-en-1-yl)benzamide]: the pest or weed control at 50 µg/cm2 in test [1] and in test [2] was 50 to 100% throughout.
Turning to `C[C@@H](NC(=O)c1ccc(/C(F)=C/C(c2cc(Cl)c(Cl)c(Cl)c2)C(F)(F)F)cc1I)C(=O)NCC(F)(F)F` (stereo partly drawn) [F67, 2-Iodo-N—((R)-1-oxo-1-((2,2,2-trifluoroethyl)amino)propan-2-yl)-4-((Z)-1,4,4,4-tetrafluoro-3-(3,4,5-trichlorophenyl)but-1-en-1-yl)benzamide], the mortality at 0.05 µg/cm2 in test [1] (168 h, 0.05 μg/cm^2 on artificial diet, second instar larvae, five to seven days, read-out: CL Percent control (or mortality)) came to 100%; in test [2] (168 h, 0.05 μg/cm^2 on artificial diet, second instar larvae, five to seven days, read-out: BAW Percent control (or mortality)), 100%. For the same molecule, the mortality at 0.5 µg/cm2 was determined as 100% in test [1] (168 h, 0.5 μg/cm^2 on artificial diet, second instar larvae, five to seven days, read-out: CL Percent control (or mortality)) and 100% in test [2] (168 h, 0.5 μg/cm^2 on artificial diet, second instar larvae, five to seven days, read-out: BAW Percent control (or mortality)). In addition, the mortality at 5 µg/cm2 in test [1] (168 h, 5 μg/cm^2 on artificial diet, second instar larvae, five to seven days, read-out: CL Percent control (or mortality)) is 100%; in test [2] (168 h, 5 μg/cm^2 on artificial diet, second instar larvae, five to seven days, read-out: BAW Percent control (or mortality)), 100%. Moreover, the pest or weed control at 50 µg/cm2 in test [1] and in test [2] was 50 to 100% each time.
`CCC(F)(F)C(/C=C(\F)c1ccc(C(=O)NCC(=O)NCC(F)(F)F)c(C(F)(F)F)c1)c1cc(Cl)c(Cl)c(Cl)c1` (stereo not shown) [F87, (Z)—N-(2-Oxo-2-((2,2,2-trifluoroethyl)amino)ethyl)-4-(1,4,4-trifluoro-3-(3,4,5-trichlorophenyl)hex-1-en-1-yl)-2-(trifluoromethyl)benzamide]: the pest or weed control at 50 µg/cm2 in test [1] and in test [2] was 50 to 100% throughout.
Take `CCC(F)(F)C(/C=C(\F)c1ccc(C(=O)NC2(C(=O)NCC(F)(F)F)CC2)c(C(F)(F)F)c1)c1cc(Cl)c(Cl)c(Cl)c1` (stereo not shown) [F88, (Z)-4-(1,4,4-Trifluoro-3-(3,4,5-trichlorophenyl)hex-1-en-1-yl)-N-(1-((2,2,2-trifluoroethyl)carbamoyl)cyclopropyl)-2-(trifluoromethyl)benzamide]: the pest or weed control at 50 µg/cm2 in test [1] and in test [2] was 50 to 100% each time.
For the molecule `O=C(NC1(C(=O)NCCCC(F)(F)F)CC1)c1ccc(/C(F)=C/C(c2cc(Cl)c(Cl)c(Cl)c2)C(F)(F)F)cc1C(F)(F)F` (stereo not shown) [F89, (Z)-4-(1,4,4,4-Tetrafluoro-3-(3,4,5-trichlorophenyl)but-1-en-1-yl)-N-(1-((4,4,4-trifluorobutyl)carbamoyl)cyclopropyl)-2-(trifluoromethyl)benzamide], the pest or weed control at 50 µg/cm2 in test [1] and in test [2] was 50 to 100% each time.
Turning to `O=C(NC1(C(=O)NCCC(F)(F)F)CC1)c1ccc(/C(F)=C/C(c2cc(Cl)c(Cl)c(Cl)c2)C(F)(F)F)cc1C(F)(F)F` (stereo not shown) [F90, (Z)-4-(1,4,4,4-Tetrafluoro-3-(3,4,5-trichlorophenyl)but-1-en-1-yl)-2-(trifluoromethyl)-N-(1-((3,3,3-trifluoropropyl)carbamoyl)cyclopropyl)benzamide], the pest or weed control at 50 µg/cm2 in test [1] and in test [2] was 50 to 100% throughout.
For `CC(C)CCNC(=O)C1(NC(=O)c2ccc(/C(F)=C/C(c3cc(Cl)c(Cl)c(Cl)c3)C(F)(F)F)cc2C(F)(F)F)CC1` (stereo not shown) [F91, (Z)—N-(1-(Isopentylcarbamoyl)cyclopropyl)-4-(1,4,4,4-tetrafluoro-3-(3,4,5-trichlorophenyl)but-1-en-1-yl)-2-(trifluoromethyl)benzamide], the pest or weed control at 50 µg/cm2 in test [1] and in test [2] was 50 to 100% each time.
Consider `CC(F)(F)CNC(=O)C1(NC(=O)c2ccc(/C(F)=C/C(c3cc(Cl)c(Cl)c(Cl)c3)C(F)(F)F)cc2C(F)(F)F)CC1` (stereo not shown) [F92, (Z)—N-(1-((2,2-Difluoropropyl)carbamoyl)cyclopropyl)-4-(1,4,4,4-tetrafluoro-3-(3,4,5-trichlorophenyl)but-1-en-1-yl)-2-(trifluoromethyl)benzamide], for which the pest or weed control at 50 µg/cm2 in test [1] and in test [2] was 50 to 100% throughout.
As to `O=C(NC1(C(=O)NCC2CCC2)CC1)c1ccc(/C(F)=C/C(c2cc(Cl)c(Cl)c(Cl)c2)C(F)(F)F)cc1C(F)(F)F` (stereo not shown) [F93, (Z)—N-(1-((Cyclobutylmethyl)carbamoyl)cyclopropyl)-4-(1,4,4,4-tetrafluoro-3-(3,4,5-trichlorophenyl)but-1-en-1-yl)-2-(trifluoromethyl)benzamide], the pest or weed control at 50 µg/cm2 in test [1] and in test [2] was 50 to 100% throughout.
For the molecule `C#CCNC(=O)C1(NC(=O)c2ccc(/C(F)=C/C(c3cc(Cl)c(Cl)c(Cl)c3)C(F)(F)F)cc2C(F)(F)F)CC1` (stereo not shown) [F94, (Z)—N-(1-(Prop-2-yn-1-ylcarbamoyl)cyclopropyl)-4-(1,4,4,4-tetrafluoro-3-(3,4,5-trichlorophenyl)but-1-en-1-yl)-2-(trifluoromethyl)benzamide], the pest or weed control at 50 µg/cm2 in test [1] and in test [2] was 50 to 100% throughout.
`O=C(NC1(C(=O)NCC(F)F)CC1)c1ccc(/C(F)=C/C(c2cc(Cl)c(Cl)c(Cl)c2)C(F)(F)F)cc1C(F)(F)F` (stereo not shown) [F95, (Z)—N-(1-((2,2-Difluoroethyl)carbamoyl)cyclopropyl)-4-(1,4,4,4-tetrafluoro-3-(3,4,5-trichlorophenyl)but-1-en-1-yl)-2-(trifluoromethyl)benzamide]: the pest or weed control at 50 µg/cm2 in test [1] and in test [2] was 50 to 100% throughout.
For `CN(CC(F)(F)F)C(=O)C1(NC(=O)c2ccc(/C(F)=C/C(c3cc(Cl)c(Cl)c(Cl)c3)C(F)(F)F)cc2C(F)(F)F)CC1` (stereo not shown) [F96, (Z)—N-(1-(Methyl(2,2,2-trifluoroethyl)carbamoyl)cyclopropyl)-4-(1,4,4,4-tetrafluoro-3-(3,4,5-trichlorophenyl)but-1-en-1-yl)-2-(trifluoromethyl)benzamide], the pest or weed control at 50 µg/cm2 in test [1] and in test [2] was 50 to 100% throughout.
For `CN(CC(F)(F)F)C(=O)C1(NC(=O)c2ccc(/C(F)=C/C(c3cc(Cl)c(Cl)c(Cl)c3)C(F)(F)F)cc2Cl)CC1` (stereo not shown) [F97, (Z)-2-Chloro-N-(1-(methyl(2,2,2-trifluoroethyl)carbamoyl)cyclopropyl)-4-(1,4,4,4-tetrafluoro-3-(3,4,5-trichlorophenyl)but-1-en-1-yl)benzamide], the pest or weed control at 50 µg/cm2 in test [1] and in test [2] was 50 to 100% each time.
On to `CC[C@@H](NC(=O)c1ccc(/C(F)=C/C(c2cc(Cl)c(Cl)c(Cl)c2)C(F)(F)F)cc1C(F)(F)F)C(=O)NCC(F)(F)F` (stereo partly drawn) [F98, N—((R)-1-Oxo-1-((2,2,2-trifluoroethyl)amino)butan-2-yl)-4-((Z)-1,4,4,4-tetrafluoro-3-(3,4,5-trichlorophenyl)but-1-en-1-yl)-2-(trifluoromethyl)benzamide], for which the pest or weed control at 50 µg/cm2 in test [1] and in test [2] was 50 to 100% each time.
As for `CC[C@@H](NC(=O)c1ccc(/C(F)=C/C(c2cc(Cl)c(Cl)c(Cl)c2)C(F)(F)F)cc1Cl)C(=O)NCC(F)(F)F` (stereo partly drawn) [F100, 2-Chloro-N—((R)-1-oxo-1-((2,2,2-trifluoroethyl)amino)butan-2-yl)-4-((Z)-1,4,4,4-tetrafluoro-3-(3,4,5-trichlorophenyl)but-1-en-1-yl)benzamide], the pest or weed control at 50 µg/cm2 in test [1] and in test [2] was 50 to 100% each time.
